# Laboratory results: ChEMBL document CHEMBL1909046, “DrugMatrix in vitro pharmacology data”
# Legend:
# Cannabinoid receptor 1 = Cannabinoid receptor 1 (Homo sapiens, UniProt P21554); format: cell membranes, Chem-1, Membrane; conditions: chem-1; further: in other assays of this panel Not Active means under 50% inhibition at 10 µM
# B2 bradykinin receptor = target: T1, B2 bradykinin receptor (Homo sapiens, UniProt P30411); format: cell membranes, Membrane; conditions: chem-1; further: in other assays of this panel Not Active means under 50% inhibition at 10 µM
# T1 sequence (P30411 whole entry): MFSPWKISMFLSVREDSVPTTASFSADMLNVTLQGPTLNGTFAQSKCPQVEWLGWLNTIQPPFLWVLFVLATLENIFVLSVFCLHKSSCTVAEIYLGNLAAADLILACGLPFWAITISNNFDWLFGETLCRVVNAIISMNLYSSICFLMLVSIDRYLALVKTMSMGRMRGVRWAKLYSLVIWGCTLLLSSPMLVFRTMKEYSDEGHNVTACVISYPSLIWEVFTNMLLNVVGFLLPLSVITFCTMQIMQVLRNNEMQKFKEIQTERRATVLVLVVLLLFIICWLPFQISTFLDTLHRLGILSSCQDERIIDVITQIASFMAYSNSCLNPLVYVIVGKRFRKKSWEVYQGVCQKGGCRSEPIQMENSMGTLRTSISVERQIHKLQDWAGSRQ
# [1] = target: Kappa-type opioid receptor (Homo sapiens, UniProt P41145); test: DRUGMATRIX: Opiate kappa (OP2, KOP) radioligand binding (ligand: [3H] Diprenorphine); format: cell membranes, HEK293, Membrane; conditions: hek293; Not Active = under 50% inhibition at 10 µM
# [2] = DRUGMATRIX: Sigma2 radioligand binding (ligand: [3H] Ifenprodil); format: cell membranes, Rattus norvegicus, Wistar, Brain, Membrane; conditions: Not Active = under 50% inhibition at 10 µM
# [3] = target: T2, Type-2 angiotensin II receptor (Homo sapiens, UniProt P50052); format: cell-based; conditions: cho-k1; further: in other assays of this panel Not Active means under 50% inhibition at 10 µM
# T2 sequence (P50052 whole entry): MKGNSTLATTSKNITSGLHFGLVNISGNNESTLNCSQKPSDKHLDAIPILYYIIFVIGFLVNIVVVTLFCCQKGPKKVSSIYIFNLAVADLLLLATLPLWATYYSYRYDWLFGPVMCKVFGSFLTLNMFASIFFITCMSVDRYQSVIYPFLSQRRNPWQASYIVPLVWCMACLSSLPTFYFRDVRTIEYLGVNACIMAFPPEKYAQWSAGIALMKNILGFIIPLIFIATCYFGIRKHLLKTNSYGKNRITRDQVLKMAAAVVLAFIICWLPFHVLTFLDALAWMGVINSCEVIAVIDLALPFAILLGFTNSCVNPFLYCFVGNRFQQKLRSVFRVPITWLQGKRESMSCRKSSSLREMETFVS
# D(4) dopamine receptor = target: T3, D(4) dopamine receptor (Homo sapiens, UniProt P21917); test: DRUGMATRIX: Dopamine D4.2 radioligand binding (ligand: [3H] Spiperone); format: cell membranes, CHO-K1, Membrane; conditions: cho-k1, Not Active = under 50% inhibition at 10 µM
# T3 sequence (P21917 whole entry): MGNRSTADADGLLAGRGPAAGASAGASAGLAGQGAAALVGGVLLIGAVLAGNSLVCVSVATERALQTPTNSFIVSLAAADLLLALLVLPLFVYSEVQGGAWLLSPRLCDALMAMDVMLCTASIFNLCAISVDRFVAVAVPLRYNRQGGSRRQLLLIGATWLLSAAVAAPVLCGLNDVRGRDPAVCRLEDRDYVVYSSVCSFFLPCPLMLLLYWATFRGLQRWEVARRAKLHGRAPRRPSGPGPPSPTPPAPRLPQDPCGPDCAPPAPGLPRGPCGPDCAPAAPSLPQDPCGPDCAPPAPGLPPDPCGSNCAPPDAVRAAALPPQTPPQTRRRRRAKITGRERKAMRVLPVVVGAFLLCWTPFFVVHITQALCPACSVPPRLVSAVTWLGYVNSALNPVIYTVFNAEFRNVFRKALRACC
# [4] = target: Aldo-keto reductase family 1 member B1 (Rattus norvegicus, UniProt P07943); format: tissue-based, Lens of camera-type eye;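 further: inhibition of aldose reductase enzyme activity, measured with DL-glyceraldehyde as the substrate; in other assays of this panel Not Active means under 50% inhibition at 10 µM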
# Chain of Kappa-type opioid receptor (P41145 whole entry): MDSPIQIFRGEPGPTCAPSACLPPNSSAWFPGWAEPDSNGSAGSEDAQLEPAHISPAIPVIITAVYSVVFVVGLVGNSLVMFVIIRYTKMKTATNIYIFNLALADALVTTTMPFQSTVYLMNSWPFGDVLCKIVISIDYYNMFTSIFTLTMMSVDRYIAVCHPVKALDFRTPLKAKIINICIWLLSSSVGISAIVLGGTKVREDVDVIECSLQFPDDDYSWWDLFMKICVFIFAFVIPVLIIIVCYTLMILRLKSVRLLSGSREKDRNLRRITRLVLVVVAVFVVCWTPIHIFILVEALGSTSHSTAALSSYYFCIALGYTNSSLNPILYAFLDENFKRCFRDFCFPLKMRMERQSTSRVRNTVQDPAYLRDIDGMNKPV
# Chain of Cannabinoid receptor 1 (P21554 whole entry): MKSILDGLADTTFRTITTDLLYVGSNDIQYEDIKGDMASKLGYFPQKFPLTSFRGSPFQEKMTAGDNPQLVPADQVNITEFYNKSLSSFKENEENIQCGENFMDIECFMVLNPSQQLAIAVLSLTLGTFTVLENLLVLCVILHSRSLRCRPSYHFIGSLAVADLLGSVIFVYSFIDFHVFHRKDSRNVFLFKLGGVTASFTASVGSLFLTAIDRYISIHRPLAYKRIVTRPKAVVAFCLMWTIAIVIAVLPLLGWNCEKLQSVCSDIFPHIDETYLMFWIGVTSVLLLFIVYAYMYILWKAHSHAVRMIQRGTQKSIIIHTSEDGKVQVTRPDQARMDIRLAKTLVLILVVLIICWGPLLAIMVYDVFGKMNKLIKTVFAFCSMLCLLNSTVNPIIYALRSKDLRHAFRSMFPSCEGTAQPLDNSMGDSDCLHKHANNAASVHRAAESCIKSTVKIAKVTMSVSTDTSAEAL
Compound,IC50 (Cannabinoid receptor 1),IC50 (B2 bradykinin receptor),IC50 [1],IC50 [2],Ki [2],IC50 [3],IC50 (D(4) dopamine receptor),IC50 [4],IC50 ([2]; read-out: IC50) [nM],Ki ([2]; read-out: Ki) [nM],Ki (Cannabinoid receptor 1),Ki (B2 bradykinin receptor),Ki [3],Ki (D(4) dopamine receptor; read-out: Ki) [nM],Ki [4],Ki (D(4) dopamine receptor)
O=C(c1ccccc1C(F)(F)F)N1CCC(Cc2ccccc2)CC1,Not Active,Not Active,Not Active,Not Active,Not Active,Not Active,Not Active,Not Active,,,,,,,,
O=C/C=C/c1ccccc1,Not Active,Not Active,,Not Active,Not Active,Not Active,Not Active,Not Active,,,,,,,,
Nc1ccc2c3c(cccc13)C(=O)NC2=O,Not Active,Not Active,Not Active,Not Active,Not Active,Not Active,Not Active,Not Active,,,,,,,,
COc1ccc(C(=O)N2CCCC2=O)cc1,Not Active,Not Active,Not Active,Not Active,Not Active,Not Active,Not Active,Not Active,,,,,,,,
O=c1cnn([C@@H]2O[C@H](CO)[C@@H](O)[C@H]2O)c(=O)[nH]1 [6-AZAURIDINE],Not Active,Not Active,Not Active,Not Active,Not Active,Not Active,Not Active,Not Active,,,,,,,,
CC[C@H](C)[C@H]1O[C@]2(C=C[C@@H]1C)C[C@@H]1C[C@@H](C/C=C(\C)[C@@H](O[C@H]3C[C@H](OC)[C@@H](O[C@H]4C[C@H](OC)[C@@H](O)[C@H](C)O4)[C@H](C)O3)[C@@H](C)/C=C/C=C3\CO[C@@H]4[C@H](O)C(C)=C[C@@H](C(=O)O1)[C@]34O)O2.CO[C@H]1C[C@H](O[C@H]2[C@H](C)O[C@@H](O[C@@H]3/C(C)=C/C[C@@H]4C[C@@H](C[C@]5(C=C[C@H](C)[C@@H](C(C)C)O5)O4)OC(=O)[C@@H]4C=C(C)[C@@H](O)[C@H]5OC/C(=C\C=C\[C@@H]3C)[C@]54O)C[C@@H]2OC)O[C@@H](C)[C@@H]1O [ABAMECTIN],Not Active,Not Active,Not Active,Not Active,Not Active,Not Active,Not Active,Not Active,,,,,,,,
NCCCC(O)(P(=O)(O)O)P(=O)(O)O [ALENDRONIC ACID],Not Active,Not Active,Not Active,Not Active,Not Active,Not Active,Not Active,Not Active,,,,,,,,
Cc1nnc2n1-c1ccc(Cl)cc1C(c1ccccc1)=NC2 [ALPRAZOLAM],Not Active,Not Active,,Not Active,Not Active,Not Active,Not Active,Not Active,,,,,,,,
Cn1c(=O)c2[nH]cnc2n(C)c1=O.Cn1c(=O)c2[nH]cnc2n(C)c1=O.NCCN [AMINOPHYLLINE],Not Active,Not Active,Not Active,Not Active,Not Active,Not Active,Not Active,Not Active,,,,,,,,
CCC1(CCC(C)C)C(=O)NC(=O)NC1=O [AMOBARBITAL],Not Active,Not Active,Not Active,Not Active,Not Active,Not Active,Not Active,Not Active,,,,,,,,
CC1(C)S[C@@H]2[C@H](NC(=O)[C@H](N)c3ccccc3)C(=O)N2[C@H]1C(=O)O [AMPICILLIN],Not Active,Not Active,Not Active,Not Active,Not Active,Not Active,Not Active,Not Active,,,,,,,,
COc1ccc(C2C(=O)c3ccccc3C2=O)cc1 [ANISINDIONE],Not Active,Not Active,Not Active,Not Active,Not Active,Not Active,Not Active,Not Active,,,,,,,,
O=C1O[C@H]([C@@H](O)CO)C(O)=C1O [ASCORBIC ACID],Not Active,Not Active,Not Active,Not Active,Not Active,Not Active,Not Active,Not Active,,,,,,,,
CN1[C@@H]2CC[C@H]1C[C@@H](OC(=O)C(CO)c1ccccc1)C2 (stereo partly drawn) [ATROPINE],Not Active,Not Active,Not Active,Not Active,Not Active,Not Active,Not Active,Not Active,,,,,,,,
CC(C(=O)O)c1ccc2oc(-c3ccc(Cl)cc3)nc2c1 (stereo not drawn) [BENOXAPROFEN],Not Active,Not Active,Not Active,Not Active,Not Active,Not Active,Not Active,Not Active,,,,,,,,
COc1ccc2cc3[n+](cc2c1OC)CCc1cc2c(cc1-3)OCO2.[Cl-] [BERBERINE CHLORIDE],Not Active,Not Active,Not Active,,,Not Active,Not Active,Not Active,95,59,,,,,,
C[C@@H](CO)NC(=O)[C@@H]1C=C2c3cccc4[nH]cc(c34)C[C@H]2N(C)C1 [ERGONOVINE],Not Active,Not Active,,Not Active,Not Active,Not Active,Not Active,Not Active,,,,,,,,
C[n+]1ccc(-c2cc[n+](C)cc2)cc1.[Cl-].[Cl-] [PARAQUAT DICHLORIDE],Not Active,Not Active,,Not Active,Not Active,Not Active,Not Active,Not Active,,,,,,,,
CC(C)c1cccc(C(C)C)c1O [PROPOFOL],Not Active,Not Active,,Not Active,Not Active,Not Active,Not Active,Not Active,,,,,,,,
C[C@@H]1O[C@@H](O[C@@H]2C=C3CC[C@@H]4[C@H](CC[C@]5(C)[C@@H](c6ccc(=O)oc6)CC[C@]45O)[C@@]3(C)CC2)[C@H](O)[C@H](O)[C@H]1O [PROSCILLARIDIN],Not Active,Not Active,,Not Active,Not Active,Not Active,Not Active,Not Active,,,,,,,,
AURANOFIN,Not Active,Not Active,,Not Active,Not Active,Not Active,,Not Active,,,Not Active,Not Active,Not Active,394,Not Active,
GADOPENTETATE DIMEGLUMINE,Not Active,Not Active,,Not Active,Not Active,Not Active,Not Active,Not Active,,,Not Active,Not Active,Not Active,,Not Active,Not Active
GENTAMICIN,Not Active,Not Active,,Not Active,Not Active,Not Active,Not Active,Not Active,,,Not Active,Not Active,Not Active,,Not Active,Not Active
GRAMICIDIN,Not Active,Not Active,,Not Active,Not Active,Not Active,Not Active,Not Active,,,Not Active,Not Active,Not Active,,Not Active,Not Active
NYSTATIN,Not Active,Not Active,,Not Active,Not Active,Not Active,Not Active,Not Active,,,Not Active,Not Active,Not Active,,Not Active,Not Active
